Where a SMILES comes first, the peptide text is derived from it. Where no end group is shown, it is not given here. Where only a bound is given, the exact number is not on record here.

Test [1] deals with HLA A6801 (Homo sapiens, UniProt P04439, A269V/D185E/E176V/E277Q/E87N/F33Y/G231S/I121M/I166T/I218V/L180W/L300P/L318F/N151K/P208A/P217A/Q86R/R169H/T345S). The test can be described thus: HLA class I competition binding assay using soluble HLA.
Test [2] addresses HLA A3101 (Homo sapiens, UniProt P04439, A270S/D185E/E176V/E277Q/F33T/G231S/G80R/H175R/I121M/I218V/I322F/K168Q/L300P/L318F/M331R/P217A/Q94H/R138Q/T323A/T345S/T97I/V358M). Described as above.
The target in test [3] is HLA A2902 (Homo sapiens, UniProt P04439, A270S/D101N/D185E/E176V/E277Q/E87Q/F33T/G231S/H175R/I121M/I218V/I322F/K168Q/L300P/L318F/M331R/P208A/P217A/Q86L/T323A/T345S/V100A/V358M). The description is as above.
Test [4] addresses HLA A3002 (Homo sapiens, UniProt P04439, D101N/D140H/D185E/E176R/F33S/G80R/H175R/K168Q/Q94H/R138E/R41S/V100E). Described as above.
Test [5] has as its target HLA A2402 (Homo sapiens, UniProt P04439, D101N/D140Y/D185E/E176V/E190D/F33S/G103R/G107R/I119L/I121M/I306V/K335N/L105A/L180Q/L300P/N151K/N90K/Q86E/Q94H/R106L/R138H/R89G/T104I/T345S/V100E/W191G/Y123F). Described as above.
Test [6] has as its system CD8+ spleen cells of HLA transgenic mice (HLA-A01/Kb, F1 HLA-A02/KbxBalb/c, HLA-A11/Kb, HLA-A24/Kb). The test can be described thus: Immunogenicity after peptide pool/IFA immunization, direct ex vivo IFNγ ELISPOT. In kind it is in vivo, mouse. As to conditions: for Peptide Pool SFC/10^6 cells Delta / Peptide Pool SFC/10^6 cells Ratio: immunization with pool of peptides emulsified in IFA, IFNγ ELISPOT; for Peptide Pool SFC/10^6 cells Delta: HLA transgenic mice (HLA-A01/A02/A11/A24), CD8+ cells restimulated with WT peptide 10 μg/mL; for Delta SFC/10^6 cells / Ratio: Peptide Pool; for Peptide Pool SFC/10^6 cells Ratio: HLA transgenic mice, response ratio, WT peptide 10 μg/mL. How it is done:
CTL binding epitopes were evaluated for their immunogenicity in different HLA transgenic mice. To this, a single immunization with CTL peptide pools together with a common HTL epitope emulsified in IFA was performed and up to 14 days later, CD8+ spleen cells were isolated and evaluated for epitope specificity using a direct ex vivo IFNγ ELISPOT assay.
Peptides were dissolved in DMSO at a concentration of 10 mg/mL. For each of the 4 DNA constructs, the corresponding HLA-restricted peptides were pooled per HLA type (5 to 7 CTL peptides/pool). A known HTL peptide ([…]) was added and the peptide pools were diluted in PBS to the required peptide concentration (i.e. 25 μg of each CTL peptide and 120 μg HTL peptide in 50 μl). After adding an equal volume of IFA (Pierce, lot DG56079), the mixture was emulsified by forcing it through a small orifice. Mice were immunized subcutaneously at the base of the tail with 50 μl peptide/IFA mixture.
As negative control for the peptide-immunized mice, 18 mice (in total) were injected with a PBS/IFA mixture.
(§1) Mice were euthanized and spleen cells (SPC) were isolated 13 days after immunization. […] Spleen cells of DNA- and peptide-immunized HLA-A11/Kb mice were analyzed individually. SPC of all negative control mice were pooled per 2 mice, resulting in 3 data points for each peptide tested.
(§2) A direct ex vivo IFNγ ELISPOT assay was used as surrogate CTL readout. Basically, purified CD8+ cells were incubated with the individual HPV-specific HLA-restricted peptides (10 μg/mL) loaded on the appropriate antigen presenting cells (APC), in anti-mouse IFNγ antibody-coated ELISPOT plates. […] After 20 h incubation, IFNγ-producing cells were visualized by further developing the plates with biotinylated anti-mouse IFNγ antibody, streptavidin-HRP and AEC as substrate.
(§3) Some of the CTL epitopes included in the DNA constructs are analoged sequences of the wild type viral epitopes. For these particular epitopes, only the wild type sequences were used as in vitro stimulus for CTL readout.

For test [7] the test system is unchanged. The test can be described thus: Immunogenicity after HPV DNA construct immunization, direct ex vivo IFNγ ELISPOT. The class given is in vivo, mouse. The note with it: for ICCG6137 SFC/10^6 cells Delta / ICCG6137 SFC/10^6 cells Ratio: immunization with DNA construct ICCG 6137; for ICCG6137 SFC/10^6 cells Delta / ICCG6138 SFC/10^6 cells Delta: HLA transgenic mice (HLA-A01/A02/A11/A24), CD8+ cells restimulated with WT peptide 10 μg/mL; for ICCG6137 SFC/10^6 cells Delta / ICCG6138 SFC/10^6 cells Delta / ICCG6137 SFC/10^6 cells Ratio / ICCG6138 SFC/10^6 cells Ratio: IFNγ ELISPOT; for ICCG6138 SFC/10^6 cells Delta / ICCG6138 SFC/10^6 cells Ratio: immunization with DNA construct ICCG 6138; for ICCG6137 SFC/10^6 cells Ratio / ICCG6138 SFC/10^6 cells Ratio: HLA transgenic mice, response ratio, WT peptide 10 μg/mL. How it is done:
The immunogenicity of HPV HLA class I-restricted epitopes encoded in the DNA constructs was tested in the relevant HLA transgenic mice. […] To ensure an equal distribution of mice between different groups, a randomisation procedure based on body weight was performed. Female and male mice (age between 8 and 24 weeks) were ranked by body weight, extreme light or heavy animals were excluded. The remaining animals were grouped by sequentially assigning animals for the 2 experiments.
Mice were pre-treated with cardiotoxin (Sigma, C9759) on day −4 by bilateral intramuscular injection of 100 μl (2×50 μl) of a 10 μM cardiotoxin solution. Four days later, all mice were immunised with 100 μg HPV-DNA plasmid (diluted to 1 mg/ml in PBS) by bilateral injection of 50 μg in the m. tibialis anterior. […]
as §1, §2, §3

For test [8], the target named is HLA A2302 (Homo sapiens, UniProt P04439, D101N/D140Y/D185E/E176V/E190D/F33S/G103R/G107R/H175R/I119L/I121M/I306V/K168Q/K335N/L105A/L180W/L300P/N151K/N90K/P307H/Q86E/Q94H/R106L/R138H/R89G/T104I/T345S/V100E/W191G/Y123F). The test is described as follows: HLA class I competition binding assay using soluble HLA.
[9] abbreviates: HLA-A11 epitopes, HLA-A11/Kb mice, median.
Where [10] appears, read: HLA-A11 epitopes, HLA-A11/Kb mice, DNA construct ICCG6149, median.
[11] abbreviates: HLA-A11 epitopes, HLA-A11/Kb mice, DNA construct ICCG6150, median.
The mark [12] stands for this setting: HLA-A24 epitopes, HLA-A24/Kb mice, median of mouse pools.
[13] abbreviates: HLA-A24 epitopes, HLA-A24/Kb mice, DNA construct ICCG6149, median of mouse pools.
Setting [14] is: HLA-A24 epitopes, HLA-A24/Kb mice, DNA construct ICCG6150, median of mouse pools.
[15] abbreviates: HLA-A02 epitopes, F1 HLA-A02/KbxBalb/c mice, median of mouse pools.
Where [16] appears, read: HLA-A02 epitopes, F1 HLA-A02/KbxBalb/c mice, DNA construct ICCG6149, median of mouse pools.
[17] abbreviates: HLA-A02 epitopes, F1 HLA-A02/KbxBalb/c mice, DNA construct ICCG6150, median of mouse pools.

What is called IC50 is the point on the concentration scale where inhibition reaches its midpoint. Low readings indicate greater potency in that assay, high ones weaker potency in that assay. In the case of RQMNMSQWIK [compound 79], the IC50 in test [1] was 2560 nM; in test [2] it was 45 nM.
For NTELYNLLI [compound 70], the concentration for half-maximal inhibition (IC50) in test [3] and in test [4] was > 20000 nM in each case.
In the case of SYFGMSFIHF [compound 39], the IC50 in test [5] was 17.5 nM; in test [4], 1540 nM.
The corresponding values for `CC[C@H](C)[C@H](NC(=O)[C@H](Cc1ccc(O)cc1)NC(=O)[C@H](Cc1ccccc1)NC(=O)[C@@H](NC(=O)[C@H](CC(N)=O)NC(=O)[C@H](Cc1ccc(O)cc1)NC(=O)CN)[C@@H](C)O)C(=O)N[C@@H](CCC(=O)O)C(=O)N[C@@H](Cc1ccccc1)C(=O)O` [compound 41] are 16 nM and 1260 nM.
Consider `CC(C)C[C@H](NC(=O)[C@H](CC(C)C)NC(=O)[C@@H](NC(=O)[C@H](CS)NC(=O)[C@H](Cc1ccccc1)NC(=O)[C@H](CS)NC(=O)[C@H](CC(C)C)NC(=O)[C@H](CC(C)C)NC(=O)[C@@H](N)Cc1ccccc1)C(C)C)C(=O)O` [compound 51] (H-FLLCFCVLL-OH; N-terminus and C-terminus assumed), for which the “Peptide Pool SFC/10^6 cells Delta” value in test [6] amounted to 195 SFC/10^6 cells. In addition, in test [7], the “ICCG6137 SFC/10^6 cells Delta” value is given as 8 SFC/10^6 cells and the “ICCG6138 SFC/10^6 cells Delta” value came out at 8 SFC/10^6 cells.
For the compound “138 (FVVYRDSIPH; Human papillomavirus type 18) [compound 138]”, the “Delta SFC/10^6 cells” value in test [6] (setting [9]) came out at 110 SFC/10^6 cells; in test [7] (setting [10]) it was 1 SFC/10^6 cells; in test [7] (setting [11]) it was 1 SFC/10^6 cells. The results for the Ratio in test [6] (setting [9]), in test [7] (setting [10]) and in test [7] (setting [11]) were 1.3, 1.0 and 1.0, respectively.
Take “150 (TLQEIVLHL; Human papillomavirus type 45) [compound 150]”: in test [6], the “Peptide Pool SFC/10^6 cells Delta” value turned out to be 70 SFC/10^6 cells and the “Peptide Pool SFC/10^6 cells Ratio” value stood at 8.0. Further, in test [7], the “ICCG6137 SFC/10^6 cells Delta” value stood at 5 SFC/10^6 cells, the “ICCG6137 SFC/10^6 cells Ratio” value is on record as 2.0, the “ICCG6138 SFC/10^6 cells Delta” value turned out to be 3 SFC/10^6 cells and the “ICCG6138 SFC/10^6 cells Ratio” value came to 1.3.
For the compound VFTFPNPFPF [compound 62], the IC50 is 12 nM in test [8], 603 nM in test [3] and > 20000 nM in test [4].
Regarding “146 (QAEPDTSNY; Human papillomavirus type 31) [compound 146]”, in test [6], the “Peptide Pool SFC/10^6 cells Delta” value amounted to 4 SFC/10^6 cells and the “Peptide Pool SFC/10^6 cells Ratio” value is listed as 1.2. Moreover, in test [7], the “ICCG6138 SFC/10^6 cells Delta” value turned out to be 23 SFC/10^6 cells and the “ICCG6138 SFC/10^6 cells Ratio” value came to 2.5.
Regarding “141 (RFHNIRGRW; Human papillomavirus type 16) [compound 141]”, the “Delta SFC/10^6 cells” value in test [6] (setting [12]) came to 205 SFC/10^6 cells; in test [7] (setting [13]) it was 3 SFC/10^6 cells; in test [7] (setting [14]), 1 SFC/10^6 cells. The Ratio in test [6] (setting [12]) is recorded as 6.9; in test [7] (setting [13]), 1.1; in test [7] (setting [14]), 1.0.
Take VVFIYIPLF [compound 64]: the IC50 in test [5] was determined as 276 nM; in test [3], 302 nM; in test [4], 268 nM.
“154 (FYSRIRELRY; Human papilloma virus) [compound 154]”: in test [6], the “Peptide Pool SFC/10^6 cells Delta” value is 165 SFC/10^6 cells and the “Peptide Pool SFC/10^6 cells Ratio” value came out at 7.3. In addition, in test [7], the “ICCG6137 SFC/10^6 cells Delta” value was 45 SFC/10^6 cells, the “ICCG6137 SFC/10^6 cells Ratio” value came out at 2.0, the “ICCG6138 SFC/10^6 cells Delta” value is 33 SFC/10^6 cells and the “ICCG6138 SFC/10^6 cells Ratio” value came to 1.3.
For LYNLLIRCF [compound 44], the concentration for half-maximal inhibition (IC50) in test [8] is 10 nM; in test [3], > 20000 nM.
For “140 (PYAVCDKCL; Human papillomavirus type 16) [compound 140]”, the “Delta SFC/10^6 cells” value in test [6] (setting [12]) amounted to 150 SFC/10^6 cells; in test [7] (setting [13]) it was 3 SFC/10^6 cells; in test [7] (setting [14]), 1 SFC/10^6 cells. In addition, the Ratio was 4.2 in test [6] (setting [12]), 1.1 in test [7] (setting [13]) and 1.0 in test [7] (setting [14]).
With `CSCC[C@H](N)C(=O)N[C@@H](Cc1ccc(O)cc1)C(=O)N[C@H](C(=O)N[C@@H](CS)C(=O)N[C@@H](CS)C(=O)N[C@@H](Cc1c[nH]cn1)C(=O)N[C@H](C(=O)N1CCC[C@H]1C(=O)N[C@@H](CC(C)C)C(=O)O)C(C)C)C(C)C` [compound 42] (H-MYVCCHVPL-OH; N-terminus and C-terminus assumed), the “Delta SFC/10^6 cells” value in test [6] (setting [12]), in test [7] (setting [13]) and in test [7] (setting [14]) was 1 SFC/10^6 cells each time.
For the compound YYMTDAGTW [compound 40], the 50% inhibitory concentration (IC50) in test [5] amounted to 3.2 nM; in test [3], 3410 nM.
With LSSALEIPY [compound 46], the IC50 in test [4] worked out at 175 nM.
Turning to “133 (YMLDLQPETT; Human papillomavirus type 16) [compound 133]”, the “Delta SFC/10^6 cells” value worked out at 1 SFC/10^6 cells in test [6] (setting [15]), 5 SFC/10^6 cells in test [7] (setting [16]) and 10 SFC/10^6 cells in test [7] (setting [17]). Further, the Ratio in test [6] (setting [15]) came to 1.0; in test [7] (setting [16]), 1.4; in test [7] (setting [17]) it was 3.3.
As to TVSATQLVK [compound 33], the IC50 in test [2] amounted to 6140 nM. That is a single-digit micromolar value.

The record behind these values is patent US8969542B2, “HPV polyepitope constructs and uses thereof” (priority 2007, dated 2015).
